Data reported in patent US20240132525A1, “BORON […], CO[…], METHODS AND USES THEREOF” (priority 2022, published 2024).
Where two headings read alike, the source gives them in different places.

Key:
[1] = Dog LM (liver microsome) assay; type: in vitro ADME; conditions: predicted clearance as percent of liver blood flow
Protocol: Dog LM (Liver Microsome) Assay
The metabolic degradation of the test compound is assayed at 37° C. with pooled liver microsomes from dogs (Beagle). The final incubation volume of 100 μl per time point contains TRIS buffer pH 7.6 at RT (0.1 M), magnesium chloride (5 mM), microsomal protein (1 mg/ml) and the test compound at a final concentration of 1 μM. Following a short preincubation period at 37° C., the reactions were initiated by addition of beta-nicotinamide adenine dinucleotide phosphate, reduced form (NADPH, 1 mM) and terminated by transferring an aliquot into solvent after different time points. Additionally, the NADPH-independent degradation was monitored in incubations without NADPH, terminated at the last time point. The [%] remaining test compound after NADPH independent incubation is reflected by the parameter c (control) (metabolic stability). The quenched incubations are pelleted by centrifugation (10000 g, 5 min). An aliquot of the supernatant is assayed by LC-MS/MS for the amount of parent compound. The half-life (t½ INVITRO) is determined by the slope of the semilogarithmic plot of the concentration-time profile. The intrinsic clearance (CL_[…]) is calculated by considering the amount of protein in the incubation: CL_[…] [μl/min/mg protein]=(Ln 2/(half-life [min]*protein content [mg/ml]))*1000. For better across species comparison the predicted clearance is expressed as percent of the liver blood flow [% QH] in the individual species. In general, high stability (corresponding to low % QH) of the compounds across species is desired.

JAK1 = JAK1 (Homo sapiens (Human), UniProt P23458); assay: Biochemical kinase assay (33P-ATP filter-binding), JAK1; conditions: read-out: IC50 JAK1
JAK1, sequence (P23458 whole entry, species assumed): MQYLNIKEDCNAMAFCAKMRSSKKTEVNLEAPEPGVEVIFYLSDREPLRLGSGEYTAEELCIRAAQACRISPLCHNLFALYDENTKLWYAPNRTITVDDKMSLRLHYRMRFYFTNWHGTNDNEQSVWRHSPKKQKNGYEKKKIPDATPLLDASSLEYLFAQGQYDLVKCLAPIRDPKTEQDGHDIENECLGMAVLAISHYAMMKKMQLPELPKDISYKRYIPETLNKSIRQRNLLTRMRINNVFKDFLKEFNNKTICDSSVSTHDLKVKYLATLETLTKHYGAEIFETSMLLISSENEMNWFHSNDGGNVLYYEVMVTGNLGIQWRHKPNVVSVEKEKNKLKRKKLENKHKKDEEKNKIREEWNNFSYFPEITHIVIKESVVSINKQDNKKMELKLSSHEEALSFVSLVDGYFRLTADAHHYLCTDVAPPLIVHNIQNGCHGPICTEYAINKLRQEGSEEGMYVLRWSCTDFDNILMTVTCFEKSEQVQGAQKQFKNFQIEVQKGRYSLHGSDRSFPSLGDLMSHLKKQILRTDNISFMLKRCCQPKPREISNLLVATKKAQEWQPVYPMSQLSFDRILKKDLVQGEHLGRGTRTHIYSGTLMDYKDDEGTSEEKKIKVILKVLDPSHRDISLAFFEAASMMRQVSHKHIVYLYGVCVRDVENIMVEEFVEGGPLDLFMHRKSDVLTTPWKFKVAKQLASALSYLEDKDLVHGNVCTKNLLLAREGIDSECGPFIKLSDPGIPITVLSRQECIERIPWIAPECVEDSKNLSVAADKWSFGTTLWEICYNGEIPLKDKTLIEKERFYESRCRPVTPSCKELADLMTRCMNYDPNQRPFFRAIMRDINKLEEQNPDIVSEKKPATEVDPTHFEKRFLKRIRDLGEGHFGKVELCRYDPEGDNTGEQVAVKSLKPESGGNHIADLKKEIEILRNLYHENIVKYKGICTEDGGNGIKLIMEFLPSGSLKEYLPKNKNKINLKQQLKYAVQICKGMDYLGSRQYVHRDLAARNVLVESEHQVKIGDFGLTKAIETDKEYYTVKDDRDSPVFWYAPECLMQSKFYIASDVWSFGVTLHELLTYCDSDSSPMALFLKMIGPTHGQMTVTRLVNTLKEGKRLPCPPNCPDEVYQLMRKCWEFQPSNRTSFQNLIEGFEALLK
Excerpt: (§1) Biochemical Kinase Assay Protocol (JAK)
(§2) Reaction Procedure: • 1. […] Detected kinase activity by filter-binding method.

JAK2 = JAK2 (Homo sapiens (Human), UniProt O60674); assay: Biochemical kinase assay (33P-ATP filter-binding), JAK2; conditions: read-out: IC50 JAK2
JAK2, sequence (O60674 whole entry, species assumed): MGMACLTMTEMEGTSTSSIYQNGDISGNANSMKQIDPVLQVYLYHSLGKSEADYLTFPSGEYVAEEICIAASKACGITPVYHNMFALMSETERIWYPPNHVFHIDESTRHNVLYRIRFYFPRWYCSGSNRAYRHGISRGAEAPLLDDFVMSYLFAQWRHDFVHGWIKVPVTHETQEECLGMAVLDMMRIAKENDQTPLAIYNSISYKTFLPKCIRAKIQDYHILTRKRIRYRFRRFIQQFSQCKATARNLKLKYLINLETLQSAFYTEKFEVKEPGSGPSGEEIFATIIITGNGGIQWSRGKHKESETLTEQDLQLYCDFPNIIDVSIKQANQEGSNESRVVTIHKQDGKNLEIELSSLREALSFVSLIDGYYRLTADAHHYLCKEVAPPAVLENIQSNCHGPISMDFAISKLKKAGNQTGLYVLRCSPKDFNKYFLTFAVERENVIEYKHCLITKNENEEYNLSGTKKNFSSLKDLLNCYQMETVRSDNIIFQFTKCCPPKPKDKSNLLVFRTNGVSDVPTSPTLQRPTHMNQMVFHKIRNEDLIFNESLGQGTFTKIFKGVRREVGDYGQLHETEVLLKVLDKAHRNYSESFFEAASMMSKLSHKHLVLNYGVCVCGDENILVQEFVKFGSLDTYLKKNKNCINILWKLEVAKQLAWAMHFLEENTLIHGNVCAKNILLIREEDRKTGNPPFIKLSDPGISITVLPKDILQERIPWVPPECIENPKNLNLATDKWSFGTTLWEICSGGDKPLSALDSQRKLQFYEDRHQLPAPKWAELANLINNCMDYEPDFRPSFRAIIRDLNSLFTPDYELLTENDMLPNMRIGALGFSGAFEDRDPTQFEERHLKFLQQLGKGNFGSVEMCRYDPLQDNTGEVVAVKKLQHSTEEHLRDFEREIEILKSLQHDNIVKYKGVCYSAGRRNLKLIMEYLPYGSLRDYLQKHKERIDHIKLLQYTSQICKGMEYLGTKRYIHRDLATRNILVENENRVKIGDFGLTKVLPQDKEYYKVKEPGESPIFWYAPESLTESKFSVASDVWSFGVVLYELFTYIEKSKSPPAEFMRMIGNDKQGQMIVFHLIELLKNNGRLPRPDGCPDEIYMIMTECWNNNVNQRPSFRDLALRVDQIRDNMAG
Excerpt: as §1, §2

PDE4B = PDE4B (Homo sapiens (Human), UniProt Q07343); assay: PDE4B inhibition; type: biochemical
PDE4B, sequence (Q07343 whole entry, species assumed): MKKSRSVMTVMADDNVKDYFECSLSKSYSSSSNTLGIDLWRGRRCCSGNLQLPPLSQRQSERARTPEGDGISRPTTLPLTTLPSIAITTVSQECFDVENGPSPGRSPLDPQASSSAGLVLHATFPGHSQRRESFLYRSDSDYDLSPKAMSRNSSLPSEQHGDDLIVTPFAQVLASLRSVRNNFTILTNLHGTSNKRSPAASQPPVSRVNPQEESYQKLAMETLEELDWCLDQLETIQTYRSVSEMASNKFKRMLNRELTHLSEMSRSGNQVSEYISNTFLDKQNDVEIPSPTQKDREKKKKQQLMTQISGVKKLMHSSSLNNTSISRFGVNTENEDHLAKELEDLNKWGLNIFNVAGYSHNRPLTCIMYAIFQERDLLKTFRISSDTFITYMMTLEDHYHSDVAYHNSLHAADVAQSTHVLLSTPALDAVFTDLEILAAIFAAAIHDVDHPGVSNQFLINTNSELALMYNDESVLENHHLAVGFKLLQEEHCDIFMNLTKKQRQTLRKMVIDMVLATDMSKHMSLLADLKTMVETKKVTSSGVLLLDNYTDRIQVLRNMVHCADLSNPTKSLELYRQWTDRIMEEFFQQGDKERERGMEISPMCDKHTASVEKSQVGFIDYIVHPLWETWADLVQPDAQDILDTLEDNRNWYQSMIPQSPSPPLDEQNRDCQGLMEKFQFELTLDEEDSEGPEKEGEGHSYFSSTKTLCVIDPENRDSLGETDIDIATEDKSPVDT

IL-4/pSTAT6 = assay: Cytokine function assay IL-4/pSTAT6 in PBMC; type: cell-based
Protocol: (§3) Cytokine Function Assay Protocols for IL-4/pSTAT6 and GM-CSF/pSTAT5
IL-4/pSTAT6: • PBMC from a healthy donor was plated onto a 96 w plate. Compound was added and incubated for 1 hour (at 37° C.). After 1 hour, cells were stimulated with IL-4 for 15 minutes. Cells were fixed and stained with anti-pSTAT6 antibody. After staining, cells were read on a Beckman-Coulter CytoFLEX.

GM-CSF/pSTAT5 = assay: Cytokine function assay GM-CSF/pSTAT5 in lysed whole blood cells; type: cell-based; conditions: Table 3b, comparator compounds; read-out: IC50 GM-CSF
Protocol: as §3
GM-CSF/pSTAT5: • Whole blood from a healthy donor was lysed to remove red blood cells. Cells were plated onto a 96 well plate. Compound was added and incubated for 1 hour (at 37° C.). After 1 hour, cells were stimulated with GM-CSF for 15 minutes. Cells were fixed and stained with anti-pSTAT5 antibody. After staining, cells were read on a Beckman-Coulter CytoFLEX.

[2] = Table 3a, 1 μM, 1 mg/ml microsomal protein
[3] = PBMC, read-out: IC50 IL-4, Table 3a
[4] = Table 3b, comparator compounds, read-out: IC50 IL-4

Compound | Dog LM QH [1, 2] [%] | IC50 (JAK1; Table 3a) [nM] | IC50 (JAK2; Table 3a) [nM] | IC50 (PDE4B; Table 3a) [nM] | IC50 (IL-4/pSTAT6; [3]) [nM] | Dog LM QH ([1]; Table 3b, comparator compounds) [%] | IC50 (IL-4/pSTAT6; [4]) [nM] | IC50 (GM-CSF/pSTAT5) [nM] | IC50 (JAK1; Table 3b, comparator compounds) [nM] | IC50 (JAK2; Table 3b, comparator compounds) [nM] | IC50 (PDE4B; Table 3b, comparator compounds) [nM] | Inhibition PDE4B @ 1 μM (PDE4B; Table 3b, comparator compounds) [%]
N#C[C@@H]1CCC[C@H]1Nc1nc(Nc2ccc3c(c2)COB3O)ncc1Cl (relative stereo) [Example 005, (trans)-2-[[5-chloro-2-[(1-hydroxy-3H-2,1-benzoxaborol-5-yl)amino]pyrimidin-4-yl]amino]cyclopentane-1-carbonitrile] | <19.9 | 0.5 | 9 | 44.5 | – | – | – | – | – | – | – | –
Cc1cnc(Nc2ccc3c(c2)C=CB(O)O3)nc1N[C@@H]1COCC[C@H]1C#N (relative stereo) [Example 035, (trans)-3-[[2-[(2-hydroxy-1,2-benzoxaborinin-6-yl)amino]-5-methyl-pyrimidin-4-yl]amino]tetrahydropyran-4-carbonitrile] | 43.7 | 0.7 | 8.8 | 320 | – | – | – | – | – | – | – | –
Cc1cnc(Nc2cc(F)c3c(c2)C=CB(O)O3)nc1N[C@@H]1COCC[C@H]1C#N (single isomer, unassigned) [Example 036a, (trans)-3-((2-((8-fluoro-2-hydroxy-2H-benzo[e][1,2]oxaborinin-6-yl)amino)-5-methylpyrimidin-4-yl)amino)tetrahydro-2H-pyran-4-carbonitrile] | 33.1 | 0.3 | 4.8 | – | 158 | – | – | – | – | – | – | –
Cc1cnc(Nc2ccc3c(c2)C(C(C)C)=CB(O)O3)nc1N[C@H]1COCC[C@@H]1C#N (single isomer, unassigned) [Example 039a, (trans)-3-((2-((2-hydroxy-4-isopropyl-2H-benzo[e][1,2]oxaborinin-6-yl)amino)-5-methylpyrimidin-4-yl)amino)tetrahydro-2H-pyran-4-carbonitrile] | 78.4 | 1.1 | 18.9 | – | 265 | – | – | – | – | – | – | –
Cc1cnc(Nc2cc(Cl)c3c(c2)C(C(C)C)=CB(O)O3)nc1N[C@H]1COCC[C@@H]1C#N (single isomer, unassigned) [Example 040b, (trans)-3-((2-((8-chloro-2-hydroxy-4-isopropyl-2H-benzo[e][1,2]oxaborinin-6-yl)amino)-5-methylpyrimidin-4-yl)amino)tetrahydro-2H-pyran-4-carbonitrile] | 47.4 | 1.1 | 16.7 | – | 1410 | – | – | – | – | – | – | –
CCC(CC)Nc1nc(Nc2cc(Cl)c3c(c2)COB3O)ncc1C [Example C002] | – | – | – | – | – | <19.9 | 155 | 10000 | 1.1 | 95.7 | – | –
OB1OCc2cc(Nc3nccc(NC4CCCCC4)n3)ccc21 [Example C010] | – | – | – | – | – | – | – | – | 48 | 364 | 956 | 53
Cc1cnc(Nc2cc(Cl)c3c(c2)COB3O)nc1NC1CCCCC1 [Example C012] | – | – | – | – | – | <19.9 | 224 | 1780 | 0.1 | 6.5 | – | –
OB1OCc2cc(Nc3ncc(Cl)c(NC4CCCC4)n3)cc(F)c21 [Example C015] | – | – | – | – | – | 67.2 | – | – | 0.8 | 26.5 | 85.7 | –
OB1OCc2cc(Nc3ncc(F)c(NC4CCCCC4)n3)ccc21 [Example C017] | – | – | – | – | – | 53.5 | 1640 | 10000 | 11.2 | 1850 | – | –
OB1OCc2cc(Nc3ncc(Cl)c(NC4CCCCC4)n3)ccc21 [Example C018] | – | – | – | – | – | 56.0 | – | – | – | 118 | 108 | –
OB1OCc2cc(Nc3ncc(C(F)(F)F)c(NC4CCCC4)n3)ccc21 [Example C019] | – | – | – | – | – | 73.8 | – | – | 29.5 | 171 | 275 | 90
OB1OCc2cc(Nc3ncc(C(F)(F)F)c(NC4CCCCC4)n3)ccc21 [Example C020] | – | – | – | – | – | <19.9 | – | – | 44.1 | 397 | 37.6 | –
